According to PubChem BioAssay AID977628 (Broad Institute, 2014):
Inconclusive results are not listed. Calls of active or inactive are those of the source.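 How the source made its calls: active means compound lowering the normal-ribosome reporter at least twice as much as the humanized-ribosome reporter, growth loss under a set limit; inconclusive means no clear call, values can overlap the other calls; inactive means the rest.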

What follows are molecules tested on E. coli WT GFP strain growth, fluorescence, 24 h (assay: growth of wild-type and h24-humanized E. coli strains – h24 mutant RFP vs wild-type GFP, cherry-pick, dose response (AID 977628)).
For `COc1ccc(CNc2ncnc3cc(OC)c(OC)cc23)cc1OC`, the AC50 was > 100 µM (inactive). In the case of `Cc1cc2nc(SCC(=O)O)nc(C)c2cc1C`, the AC50 is reported as > 100 µM (inactive). In the case of `Cc1ccc(S(=O)(=O)N2CC(=O)Nc3ccccc32)cc1C`, the AC50 is reported as > 100 µM (inactive). `COc1ccc(-c2csc3ncn(-c4ccc(C)cc4)c(=O)c23)cc1OC` was tested, and the AC50 was > 100 µM (inactive). For `O=C(c1cc(COc2c(F)cccc2F)on1)N1C[C@H]2CC[C@H]1C2`, the AC50 was > 100 µM (inactive). `Cc1cc(C(=O)Nc2cccc3c2O[C@H](CN(C)S(=O)(=O)c2ccc(Cl)cc2)[C@H](C)CN([C@H](C)CO)C3=O)n(C)n1` was tested, and the AC50 was > 100 µM (inactive). In the case of `CSc1ccc(CN(C)CC(=O)NC(C)c2ccccc2)cc1` (configuration not stated), the AC50 is reported as > 100 µM (inactive). With `CCN(c1cccc2ccccc12)S(=O)(=O)c1ccc(Cl)nc1` the AC50 was > 100 µM (inactive). With `COc1ccccc1CN1Cc2ccccc2Oc2ccccc2S1(=O)=O` the AC50 was > 100 µM (inactive). `CC1CCCN(c2ccc(C(=O)NCCc3ccccc3)cn2)C1` (configuration not stated) was tested, and the AC50 was > 100 µM (inactive). For `C=CCn1c(C)cc(C(=O)COC(=O)CNC(=O)c2ccccc2)c1C`, the AC50 was > 100 µM (inactive). `CC(=O)OC1N=C(c2ccccc2Cl)c2cc(Br)ccc2NC1=O` (configuration not stated) was tested, and the AC50 was > 100 µM (inactive). For `CC(=O)Oc1ccc(N(C(C)=O)S(=O)(=O)c2ccc(C)cc2)c2ccccc12`, the AC50 was > 100 µM (inactive). With `O=C(Cn1cnc2ccccc21)c1ccc(Br)cc1` the AC50 was > 100 µM (inactive). `CC(C)=C(c1ccc(Cl)cc1)c1c(N)ncnc1N` was tested, and the AC50 was > 100 µM (inactive). `Cc1ccccc1-n1nnnc1SCCCC(=O)c1ccc(F)cc1` was tested, and the AC50 was > 100 µM (inactive). For `O=C(O)c1ccc(Oc2ccc([N+](=O)[O-])cc2)c([N+](=O)[O-])c1`, the AC50 was > 100 µM (inactive). `COc1ccc(N2C(=O)C3C(C2=O)C3(c2ccccc2)c2ccccc2)cc1` (configuration not stated) was tested, and the AC50 was > 100 µM (inactive). `CCc1ccc(OCC(=O)NCc2ccco2)c(Br)c1` was tested, and the AC50 was > 100 µM (inactive). In the case of `CN(c1ccccc1)S(=O)(=O)c1cccc(C(=O)OCC(=O)NCc2ccco2)c1`, the AC50 is reported as > 100 µM (inactive). In the case of `O=C(NCc1cccnc1)c1ccc(COc2ccc3c(c2)CCC3)o1`, the AC50 is reported as > 100 µM (inactive). For `Cc1cc(C)c(S(=O)(=O)NCCOc2ccccc2)c(C)c1-n1cnnn1`, the AC50 was > 100 µM (inactive). `O=S(=O)(c1ccc(Cl)cc1)N1CCN=C1SCc1cccc(Cl)c1` was tested, and the AC50 was > 100 µM (inactive). `CCOC(=O)c1cccc(OS(=O)(=O)Cc2ccccc2)c1` was tested, and the AC50 was > 100 µM (inactive). For `Cc1ccc(Cl)cc1N1CCN(C(=O)c2ccc3nc[nH]c3c2)CC1`, the AC50 was > 100 µM (inactive). In the case of `CSc1ccccc1NC(=O)CN(c1cccc(C)c1)S(C)(=O)=O`, the AC50 is reported as > 100 µM (inactive). For `CCOc1ccccc1N1CCN(Cc2cn[nH]c2-c2ccc(F)cc2)CC1`, the AC50 was > 100 µM (inactive). In the case of `COc1cc(OC)cc(C(=O)N[C@H](C(=O)OCC(=O)Nc2ccc(F)c(F)c2F)C(C)C)c1`, the AC50 is reported as > 100 µM (inactive). With `COCc1nnc(NC(=O)c2ccc(S(=O)(=O)N3CCCC3)cc2)o1` the AC50 was > 100 µM (inactive). In the case of `CN(C)CCN(C(=O)c1ccc2c(c1)CCCC2)c1nc2c(F)cccc2s1`, the AC50 is reported as > 100 µM (inactive). `COc1ccccc1-c1ccc(SCc2ccc(F)cc2)nn1` was tested, and the AC50 was > 100 µM (inactive). In the case of `CCn1nnc(NC(=O)c2ccc([N+](=O)[O-])o2)n1`, the AC50 is reported as > 100 µM (inactive). In the case of `COc1ccc2nc(SCC(=O)Nc3ccccc3)[nH]c2c1`, the AC50 is reported as > 100 µM (inactive). `COc1ccc(Cn2c(=O)c3[nH]cnc3n(-c3ccc(C)cc3)c2=O)cc1` was tested, and the AC50 was > 100 µM (inactive). In the case of `CCOC(=O)Cc1csc(NC(=O)c2cc3ccccc3o2)n1`, the AC50 is reported as > 100 µM (inactive). For `O=C(CN1CCCCC1)Nc1ccccc1-c1ccccc1`, the AC50 was > 100 µM (inactive). For `Nc1nc(Nc2ccccc2F)nc(N2CCOCC2)c1[N+](=O)[O-]`, the AC50 was > 100 µM (inactive). In the case of `Fc1ccc(-c2nnc(-c3ccc4ccccc4c3)o2)cc1`, the AC50 is reported as > 100 µM (inactive). In the case of `CC1=Nc2cc(C(=O)NCC3CCCO3)ccc2Sc2ccc(Br)cc21` (configuration not stated), the AC50 is reported as > 100 µM (inactive). For `O=C1NC(CCc2ccccc2)C(=O)N1Cc1cccc2ccccc12` (configuration not stated), the AC50 was > 100 µM (inactive). For `CCC(=O)c1ccc(OCC(=O)Nc2nc(C)cs2)cc1`, the AC50 was > 100 µM (inactive). With `Cc1ccsc1C(=O)OCC(=O)N1CCc2ccccc2C1` the AC50 was > 100 µM (inactive). `CN1C(=O)c2ccccc2OC1(C)Cc1ccccc1` (configuration not stated) was tested, and the AC50 was > 100 µM (inactive). `COc1ccc(-c2cc(C(=O)N3CCc4ccccc4C3)no2)cc1` was tested, and the AC50 was > 100 µM (inactive). With `CC(C)(C)c1ccc(N2C(=O)CSC2c2cccnc2)cc1` (configuration not stated) the AC50 was > 100 µM (inactive). For `COc1ccc(OC)c(N(CC(=O)Nc2ccccc2F)S(=O)(=O)c2ccccc2)c1`, the AC50 was > 100 µM (inactive). With `COc1ccc(OC)c(S(=O)(=O)Nc2cccc3ccccc23)c1` the AC50 was > 100 µM (inactive). In the case of `c1cncc(-c2nc3cc4ccccc4cc3[nH]2)c1`, the AC50 is reported as > 100 µM (inactive). For `N#Cc1ccc(C(=O)Nc2ccn(-c3ccccc3)n2)cc1`, the AC50 was > 100 µM (inactive). In the case of `Cc1cc(C(=O)NCCC2=CCCCC2)ccc1[N+](=O)[O-]`, the AC50 is reported as > 100 µM (inactive). With `O=c1[nH]c(C2CCN(S(=O)(=O)c3ccc4c(c3)OCCO4)CC2)nc2c1nnn2Cc1ccccc1F` the AC50 was > 100 µM (inactive). In the case of `Cc1ccc(C2NC(=O)c3[nH]nc(-c4ccccc4)c32)cc1` (configuration not stated), the AC50 is reported as > 100 µM (inactive). `Cc1sc(NC(=O)CN2CCOCC2)nc1-c1ccc2c(c1)CCN2S(=O)(=O)c1ccccc1` was tested, and the AC50 was > 100 µM (inactive). With `Cc1ccc2nc(SCC(=O)c3ccc(O)cc3O)[nH]c2c1` the AC50 was > 100 µM (inactive). In the case of `O=C(c1ccc(Cl)cc1)N1CCN(c2cccc3[nH]ccc23)CC1`, the AC50 is reported as > 100 µM (inactive). With `CCN(CC)CCN(C(=O)c1ccc2c(c1)OCCO2)c1nc2cc(C)cc(C)c2s1` the AC50 was > 100 µM (inactive). For `CCN(CC)S(=O)(=O)c1cccc(NC(=O)CNc2cccc(S(=O)(=O)N3CCCC3)c2)c1`, the AC50 was > 100 µM (inactive). For `O=C(c1ccccc1)C1CN(Cc2ccccc2)CCC1(O)c1ccccc1` (configuration not stated), the AC50 was > 100 µM (inactive). In the case of `O=S1(=O)N[C@H](Cc2ccccc2)COc2cccc(N3CCC[C@H]3CO)c21`, the AC50 is reported as > 100 µM (inactive). For `O=C(c1ccccc1)N(c1ccccc1)c1nccc2ccccc12`, the AC50 was > 100 µM (inactive). `Cc1nn(C(C)(C)C)c(OC(=O)CC(C)C)c1S(=O)(=O)c1ccccc1` was tested, and the AC50 was > 100 µM (inactive). With `COC(=O)c1ccc2nc(-c3cccc(Br)c3)c(Cc3ccsc3)n2c1` the AC50 was > 100 µM (inactive). In the case of `CCOc1ccc2nc(SCC(=O)Nc3cccc(S(=O)(=O)NC4=NCCCCC4)c3)[nH]c2c1`, the AC50 is reported as > 100 µM (inactive). With `O=C(NCc1ccccc1Cl)[C@H]1CCCN1C(=O)[C@H]1CCCN1C(=O)c1cccc2ccccc12` the AC50 was > 100 µM (inactive). With `O=C(CCc1nc2ccccc2s1)OCC(=O)c1ccc[nH]1` the AC50 was > 100 µM (inactive). For `CC(Nc1ncnc2ccccc12)c1ccccc1` (configuration not stated), the AC50 was > 100 µM (inactive). In the case of `COc1ccc(OC2C(=O)N(Cc3ccc4c(c3)OCO4)C2c2sccc2C)cc1` (configuration not stated), the AC50 is reported as > 100 µM (inactive). `COCCCn1c(C)cc(C(=O)COC(=O)CCc2nc3ccccc3c(=O)[nH]2)c1C` was tested, and the AC50 was > 100 µM (inactive). For `O=C(Nc1cc(F)ccc1F)N1CCCCN2[C@@H](CO)[C@H](c3ccc(-c4ccncc4)cc3)[C@@H]2C1`, the AC50 was > 100 µM (inactive). With `CC(=O)N1CCOc2ccc(S(=O)(=O)N(C)c3ccc(C)cc3)cc21` the AC50 was > 100 µM (inactive). For `CC1(C(=O)NS(=O)(=O)c2cccs2)CCN1C(=O)C1(c2ccc(Cl)cc2)CCC1` (configuration not stated), the AC50 was > 100 µM (inactive). With `CCC(C(=O)NCCc1ccc(C)cc1)n1nc(C)c2c(C)n(-c3ccccc3)nc2c1=O` (configuration not stated) the AC50 was > 100 µM (inactive). In the case of `O=C(Nc1ccc2nc(-c3ccccc3)[nH]c2c1)c1cccs1`, the AC50 is reported as > 100 µM (inactive). In the case of `O=C(c1cnc(Cc2c[nH]c3ccccc23)c(I)c1)N1CCCCC1`, the AC50 is reported as > 100 µM (inactive). For `COc1cc(O)c2c(c1)/C=C/C[C@H](O)[C@H](O)C(=O)CCC[C@H](C)OC2=O`, the AC50 was > 100 µM (inactive). For `COc1cc2[nH]c(=S)nc(NCCc3ccc(C)cc3)c2cc1OC`, the AC50 was > 100 µM (inactive). For `CCOC(=O)C1CCCN(C(=O)c2csc(-c3ccc4c(c3)CCO4)n2)C1` (configuration not stated), the AC50 was > 100 µM (inactive). In the case of `COc1ccc2c(c1)c(C(C)=O)c(C)n2CCc1ccc(OC)c(OC)c1`, the AC50 is reported as > 100 µM (inactive). With `COc1ccc(C(=O)N(c2ccccc2)c2nccc3ccccc23)cc1OC` the AC50 was > 100 µM (inactive). For `Cc1ccoc1C(=O)Nc1ccc2ccccc2c1`, the AC50 was > 100 µM (inactive). `COc1ccc(CNS(=O)(=O)c2ccc3c(c2)NC(=O)C(C)S3)cc1` (configuration not stated) was tested, and the AC50 was > 100 µM (inactive). For `O=C(CSc1ccccc1)Nc1cccc(NC(=O)c2ccco2)c1`, the AC50 was > 100 µM (inactive). For `O=C(Nc1ccc(S(=O)(=O)N2CCCC2)cc1)c1ccc(OCC2CCCO2)cc1` (configuration not stated), the AC50 was > 100 µM (inactive). `Nc1nc(=S)ss1` was tested, and the AC50 was > 100 µM (inactive). In the case of `COc1ccc(OC)c(-c2nnc3n2N=C(c2ccc(OC)c(OC)c2)CS3)c1`, the AC50 is reported as > 100 µM (inactive). With `Cc1cccc(CN2C(=O)c3ccccc3Sc3ccc(C(=O)O)cc32)c1` the AC50 was > 100 µM (inactive). `CCCCn1c(NS(=O)(=O)c2ccc(C)cc2)c(C(=O)OCC)c2nc3ccccc3nc21` was tested, and the AC50 was > 100 µM (inactive). `Cc1nnn(C23C[C@@H]4C[C@@H](CC(C(=O)N5CCN(c6ccccc6)CC5)(C4)C2)C3)n1` was tested, and the AC50 was > 100 µM (inactive). With `COc1ccc(C(=O)c2c(C)oc3ccc(O)cc23)cc1` the AC50 was > 100 µM (inactive). `COc1cccc(NC(=O)C2CCC(CNS(=O)(=O)c3cccc4cccnc34)CC2)c1` (configuration not stated) was tested, and the AC50 was > 100 µM (inactive). `O=C(Cc1cccc2ccccc12)Nc1ccccc1C(=O)O` was tested, and the AC50 was > 100 µM (inactive). In the case of `COC(=O)c1ccc(CN2CCCC(CO)(Cc3ccccc3F)C2)cc1` (configuration not stated), the AC50 is reported as > 100 µM (inactive). `O=C(CCC(=O)N1CCN(c2ccc(F)cc2)CC1)N1CCN(c2ccc(F)cc2)CC1` was tested, and the AC50 was > 100 µM (inactive). With `COc1ccc(CNc2cc([N+](=O)[O-])ccc2OC)cc1` the AC50 was > 100 µM (inactive). For `COc1ccccc1CNC(=O)CSc1ccc(C)cc1`, the AC50 was > 100 µM (inactive). In the case of `O=C(Nc1ccc2c(c1)OCO2)c1ccc([N+](=O)[O-])cc1[N+](=O)[O-]`, the AC50 is reported as > 100 µM (inactive). `COc1ccccc1-c1cc2nc(NCCc3ccncc3)ccn2n1` was tested, and the AC50 was > 100 µM (inactive).
